Counter-ions that a name gives are not always drawn.
Assays:
15N-labelled VIM-2 = target: T1, 15N-labelled VIM-2 (Escherichia coli, UniProt Q5U7L7); test: 1H,15N HSQC NMR chemical shift perturbation titration, VIM-2; assay type: binding; conditions: VIM-2 Kd, 0-16 equiv. ligand, pH 7.0, 310 K
T1 construct: made in house
Method: (§1) Solution NMR spectroscopy is a powerful tool to assess protein–ligand interactions under close to physiological conditions.[47] We, therefore, performed NMR chemical shift perturbation (CSP, for details, see section S8, ESI ^†) experiments to identify the amino acid residues of NDM-1 and VIM-2 that are involved in inhibitor binding, making use of the previously published protein assignments.[48,49] Titrations were conducted using ^15N-labelled proteins with 0, 0.5, 1, 2, 4, 8, and 16 equiv. of 5 inhibitors for NDM-1 and of 7 inhibitors for VIM-2.
(§2) For the titrations, ^15N-labelled NDM-1 and ^15N-labelled VIM-2 (250 μM), and titrated ligands (0.5 equiv. in 1 μL) were prepared in the same buffer as the protein (20 mM KPO4, 0.1 mM ZnCl2, pH 7.0 with 10% D2O and 2.5% DMSO-d6). ^1H,^15N HSQC spectra were acquired with 128 × 1024 complex points (F1 × F2) and spectral width of 9090 × 2740 Hz on ^15N-labeled NDM-1/VIM-2 and with every titration step up to 1 : 16 ratio between protein : ligand (0, 0.5, 1, 2, 4, 8, and 16 equiv. of ligand). All experiments were recorded on a Bruker 600 MHz spectrometer at 310 K equipped with a 5 mm TCI cryogenic probe. The NMR data were processed on the MestReNova software with the Mnova Binding plugin. The weighted average chemical shift perturbations (CSP) for the backbone amides were calculated from the observed chemical shift differences in the proton and nitrogen dimensions using the equation (chemical shift scaling factors: FH = 1, FN = 0.156) CSP = Δδ1H,15N = [drawing 13] .
(§3) 7. Chemical shift perturbation histograms
(§4) Chemical shift perturbation was calculated according equation (1) 2
(§5) CSP = Δδ(1H,15N) = √(Δδ1H2 + (1⁄R × Δδ15N2) Rscale = 6.5 (1)
(§6) Where Δδ1H is the chemical shift change for proton dimension, Δδ15N is the chemical shift change for nitrogen dimension, Rscale is a
(§7) The chemical shift perturbations (CSP) were classified as significant (SSP) when the observed Δδ(1H,15N) was greater than the population
(§8) mean plus the standard deviation (µ+1σ) – solid line; (µ+2σ) – dashed line, and (µ+3σ) – dashed line.
(§9) Further on, Kd was calculated according: 3
(§10) ([P]+[L]+Kd)− √([P]+[L]+Kd)2−4[P][L]
(§11) ΔδmaxΔδobs = Δδmax 2[P] (2)
(§12) Where Kd is the dissociation constant, [P] and [L] are protein and ligand concentrations, respectively. Δδmax were estimated in
(§13) MestReNova by extrapolation of the obser ved chemical shift differences Δδobs.

VIM-2 = target: T2, VIM-2 (Escherichia coli, UniProt Q5U7L7); test: Dose rate inhibition studies for IC50 determination, VIM-2 enzymatic assay; assay type: biochemical; conditions: Enzyme IC50 VIM-2, 0.1 nM VIM-2, 100 μM ZnCl2, nitrocefin substrate, inhibitor 0-800 μM, 3 parallel measurements; N.I. = no enzyme inhibitory activity observed
T2 construct: made in house
Method: (§14) The […] synthesized compounds 5a–l were tested for their inhibitory activities against NDM-1, VIM-2 (Table 1), and GIM-1 in an in vitro enzymatic assay (ESI ^†).[41] The inhibitory activity was measured using enzyme concentrations of 0.1 nM VIM-2, 10 nM NDM-1 or 1 nM GIM-1, with an excess Zn(II) (100 μM, see Experimental methods), with inhibitor compounds with concentrations from 0 to 800 μM. Each data point was measured in triplicates. […] This is in line with previous reports.[42,43]
(§15) A 100 μl solution with buffer (50 mM HEPES (pH 7.2), 100 μM ZnCl2, 2.5% DMSO), purified enzyme (0.1 nM VIM-2, 10 nM NDM-1 or 1 nM GIM-1) and 800–0 μM inhibitor was incubated in a 96 well plate at 25 °C for 5 min. In addition, the enzyme buffer contained 400 μg ml^−1 bovine serum albumin (BSA) to prevent protein unfolding and loss of activity due to low concentrations.[67,68] 100 μM of the reporter substrate nitrocefin (VIM-2, GIM-1) or imipenem (NDM-1) was added to the enzyme–inhibitor solution and the increase in absorbance at 482 nm (nitrocefin) or 300 nm (imipenem) was recorded on a Spectramax M4 spectrophotometer (Molecular Devices). Each data point was performed in triplicates and the initial velocity for each inhibitor concentration was analyzed by a log [inhibitor] vs. response curve fitting to calculate IC50 in GraphPad Prism 9.2 software.

NDM-1 = target: T3, NDM-1 (Klebsiella pneumoniae, UniProt C7C422); test: Dose rate inhibition studies for IC50 determination, NDM-1 enzymatic assay; assay type: biochemical; conditions: Enzyme IC50 NDM-1, 10 nM NDM-1, 100 μM ZnCl2, imipenem substrate, inhibitor 0-800 μM, 3 parallel measurements; N.I. = no enzyme inhibitory activity observed
T3 construct: made in house
T3 sequence (C7C422 29-270 limits assumed): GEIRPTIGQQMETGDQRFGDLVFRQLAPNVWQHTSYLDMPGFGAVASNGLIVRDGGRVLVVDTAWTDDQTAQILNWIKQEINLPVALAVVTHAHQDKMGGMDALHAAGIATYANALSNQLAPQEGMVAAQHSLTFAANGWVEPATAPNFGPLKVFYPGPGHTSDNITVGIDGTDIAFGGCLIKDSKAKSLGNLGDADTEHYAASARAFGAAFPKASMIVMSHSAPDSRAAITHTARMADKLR
Method: as §14, §15

15N-labelled NDM-1 = target: T4, 15N-labelled NDM-1 (Klebsiella pneumoniae, UniProt C7C422); test: 1H,15N HSQC NMR chemical shift perturbation titration, NDM-1; assay type: binding
T4 construct: made in house
T4 sequence (C7C422 29-270 limits assumed): as above
Method: as §1, §2, §3, §4, §5, §6, §7, §8, §9, §10, §11, §12, §13

O=C(Cc1cccs1)NC(C1CCCCN1)P(=O)(O)O (centres unmarked) [Compound 5i-2, (Piperidin-2-yl(2-(thiophen-2-yl)acetamido)methyl)phos-phonic acid hydrochloride]
Kd (15N-labelled VIM-2): 1.1 ± 0.1 mM
IC50 (VIM-2): 0.328 ± 0.116 mM
IC50 (NDM-1): 0.271 ± 0.034 mM
Kd (15N-labelled NDM-1; Estimated binding constant (Kd), residue 070F, Table S5, per-residue fit, NDM-1 070F): 4.9 mM
Kd (15N-labelled NDM-1; Estimated binding constant (Kd), residue 108E, Table S5, per-residue fit, NDM-1 108E): 2.03 mM
Kd (15N-labelled NDM-1; Estimated binding constant (Kd), residue 119T, Table S5, per-residue fit, NDM-1 119T): 26.4 mM
Kd (15N-labelled NDM-1; Estimated binding constant (Kd), residue 124D, Table S5, per-residue fit, NDM-1 124D): 14.1 mM
Kd (15N-labelled NDM-1; Estimated binding constant (Kd), residue 127G, Table S5, per-residue fit, NDM-1 127G): 1.76 mM
Kd (15N-labelled NDM-1; Estimated binding constant (Kd), residue 152E, Table S5, per-residue fit, NDM-1 152E): 1.18 mM
Kd (15N-labelled NDM-1; Estimated binding constant (Kd), residue 159H, Table S5, per-residue fit, NDM-1 159H): 8.3 mM
Kd (15N-labelled NDM-1; Estimated binding constant (Kd), residue 160S, Table S5, per-residue fit, NDM-1 160S): 17.6 mM
Kd (15N-labelled NDM-1; Estimated binding constant (Kd), residue 194I, Table S5, per-residue fit, NDM-1 194I): 2.49 mM
Kd (15N-labelled NDM-1; Estimated binding constant (Kd), residue 197G, Table S5, per-residue fit, NDM-1 197G): 15.2 mM
Kd (15N-labelled NDM-1; Estimated binding constant (Kd), residue 205F, Table S5, per-residue fit, NDM-1 205F): 6.84 mM
Kd (15N-labelled NDM-1; Estimated binding constant (Kd), residue 206G, Table S5, per-residue fit, NDM-1 206G): 6.81 mM
Kd (15N-labelled NDM-1; Estimated binding constant (Kd), residue 211K, Table S5, per-residue fit, NDM-1 211K): 17.1 mM
Kd (15N-labelled NDM-1; Estimated binding constant (Kd), residue 214K, Table S5, per-residue fit, NDM-1 214K): 0.78 mM
Kd (15N-labelled NDM-1; Estimated binding constant (Kd), residue 217S, Table S5, per-residue fit, NDM-1 217S): 16.4 mM
Kd (15N-labelled NDM-1; Estimated binding constant (Kd), residue 228H, Table S5, per-residue fit, NDM-1 228H): 10.1 mM
Kd (15N-labelled NDM-1; Estimated binding constant (Kd), residue 229Y, Table S5, per-residue fit, NDM-1 229Y): 2.3 mM
Kd (15N-labelled NDM-1; Estimated binding constant (Kd), residue 230A, Table S5, per-residue fit, NDM-1 230A): 2.71 mM
Kd (15N-labelled NDM-1; Estimated binding constant (Kd), residue 232S, Table S5, per-residue fit, NDM-1 232S): 5.57 mM
Kd (15N-labelled NDM-1; Estimated binding constant (Kd), residue 248M, Table S5, per-residue fit, NDM-1 248M): 2.58 mM
Kd (15N-labelled NDM-1; Estimated binding constant (Kd), residue 249S, Table S5, per-residue fit, NDM-1 249S): 8.45 mM
Kd (15N-labelled NDM-1; Estimated binding constant (Kd), residue 251S, Table S5, per-residue fit, NDM-1 251S): 3.38 mM
Kd (15N-labelled NDM-1; Estimated binding constant (Kd), residue 254D, Table S5, per-residue fit, NDM-1 254D): 5.01 mM
Kd (15N-labelled NDM-1; Estimated binding constant (Kd), residue 255S, Table S5, per-residue fit, NDM-1 255S): 1.66 mM
Kd (15N-labelled NDM-1; Estimated binding constant (Kd), residue 263A_266A, Table S5, per-residue fit, NDM-1 263A_266A): 0.69 mM
Kd (15N-labelled NDM-1; NDM-1 Kd, NMR chemical shift perturbation, 0-16 equiv. ligand, pH 7.0, 310 K): 1.4 ± 0.1 mM

Source: paper PMC10650955, “α-Aminophosphonate inhibitors of metallo-β-lactamases NDM-1 and VIM-2” (RSC Medicinal Chemistry, 2023)
